The source of these data is patent US20260327225A1, “HETEROCYCLIC COMPOUNDS AS TRIGGERING RECEPTOR EXPRESSED ON MYELOID CELLS 2 AGONISTS AND METHODS OF USE” (VIGIL NEUROSCIENCE, INC., priority 2023, published 2026).

The EC50 is the concentration at which the effect is half-maximal.

In the experiment the target is T1, human TREM2 (Homo sapiens, UniProt Q9NZC2).
T1 construct: expressed in transfected cells; host or cells: HEK293T-hTREM2 cells (HEK cell line expressing human TREM2 and DAP12)
The experiment is described as follows: TREM2 agonist potency by cellular phosphorylation of Syk (AlphaLisa) in HEK293T-hTREM2 cells expressing human TREM2 and DAP12. The settings on record: HEK293 cells expressing hTREM2 and DAP12; 45 minutes at room temperature; Syk phosphorylation, AlphaLisa; read-out: hTREM2 EC50. In kind it is cell-based. The procedure:
In vitro Measurement of Triggering Receptor Expressed on Myeloid Cells 2 activity using cellular phosphorylation of Spleen Tyrosine Kinase (“Syk”) Assays
Measurement of TREM2 agonist potency was done using a HEK cell line expressing human TREM2 and DAP12 (HEK293T-hTREM2 cells). Binding of small molecules to, and activation of, TREM2 increases the phosphorylation of Syk. The resultant levels of Syk phosphorylation are measured using a commercial AlphaLisa reagent kit. To perform the assay, HEK-hTREM2 cells were plated at 14,000 cells per well in a 384 well plate, in 25 μL of complete growth media and incubated at 37° C., 5% CO2 for 20-24 hours.
Prior to the assay, test compounds were diluted in the 384 well plates in assay buffer and allowed to equilibrate for 30 minutes. Growth media was removed from cell plates by inversion on blotting paper, and 25 μL of test articles in assay buffer was added to cells. Cells were incubated for 45 minutes at room temperature. After 45 minutes, assay buffer was removed and 10 μL of lysis buffer was added. Plates were shaken for 20 minutes at 350 RPM at room temperature. After complete lysis, AlphaLisa reagents were added to the lysate, and fluourescence intensity was measured using a Perkin Elmer Envision plate reader. Intensities were used to generate a standard curve, and % activation was calculated. Curve fitting was performed using Prism v9 software, log(agonist) vs response—variable slope (four parameters), and EC50s were calculated from the curve fit.
The results presented in Table B have been generated with the in vitro assay described above. This assay may be used to test any of the compounds described herein to assess and characterize a compound's ability to act as an agonist of TREM2.
For orientation: Alpha assays give light when donor and acceptor beads are brought close together.

T1 sequence (Q9NZC2 19-230): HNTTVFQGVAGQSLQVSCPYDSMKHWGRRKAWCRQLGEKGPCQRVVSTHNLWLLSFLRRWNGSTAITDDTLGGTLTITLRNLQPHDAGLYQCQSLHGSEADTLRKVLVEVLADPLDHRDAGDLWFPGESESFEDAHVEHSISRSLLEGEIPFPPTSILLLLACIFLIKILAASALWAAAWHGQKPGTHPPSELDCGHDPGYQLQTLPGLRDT
T1 sequence (O43914 22-113 partner): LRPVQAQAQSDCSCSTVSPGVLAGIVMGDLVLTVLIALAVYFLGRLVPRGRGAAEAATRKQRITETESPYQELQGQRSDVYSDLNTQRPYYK

On to `Cc1nc2nc(N3C[C@@H](C)O[C@@H](c4cnn(C5CC5)c4)C3)nc(-c3ccc(=O)n(C)c3)c2nc1C` [Example 104, 5-[2-[(2S,6R)-2-(1-cyclopropylpyrazol-4-yl)-6-methyl-morpholin-4-yl]-6,7-dimethyl-pteridin-4-yl]-1-methyl-pyridin-2-one], for which the EC50 is above 500 nM. With `Cc1nc2nc(C3CCOC(c4ccn5nccc5c4)C3)nc(-c3ccc(F)cc3F)c2nc1C` (centres unmarked) [Example 93, 4-(2,4-difluorophenyl)-6,7-dimethyl-2-(2-pyrazolo[1,5-a]pyridin-5-yltetrahydropyran-4-yl)pteridine], the EC50 is below 100 nM.

For the molecule `Cc1cc(-c2cc3c(-c4ccc(F)cc4F)nc(N4C[C@@H](C)O[C@@H](c5cnn(C6CC6)c5)C4)nc3nc2C)on1` [Example 11, (2S,6R)-2-(1-cyclopropylpyrazol-4-yl)-4-[4-(2,4-difluorophenyl)-7-methyl-6-(3-methylisoxazol-5-yl)pyrido[2,3-d]pyrimidin-2-yl]-6-methyl-morpholine], the EC50 was below 100 nM. As for `Cc1nc2nc([C@@H]3CCO[C@H](c4cn(C)c(=O)s4)C3)nc(C34CC(C(F)(F)F)(C3)C4)c2nc1C` [Example 107, 5-[(2S,4R)-4-[6,7-dimethyl-4-[3-(trifluoromethyl)-1-bicyclo[1.1.1]pentanyl]pteridin-2-yl]tetrahydropyran-2-yl]-3-methyl-thiazol-2-one], the figure is below 100 nM; as for `Cc1nc2nc(C3CCOC(c4ccc5ncn(C)c5c4)C3)nc(-c3ccc(F)cc3F)c2nc1C` (centres unmarked) [Example 98, 4-(2,4-difluorophenyl)-6,7-dimethyl-2-[2-(3-methylbenzimidazol-5-yl)tetrahydropyran-4-yl]pteridine], below 100 nM. For the molecule `CO[C@H]1CN(c2nc(-c3ccc(F)cc3F)c3nc(C)c(C)nc3n2)C[C@@H]1c1cn(C2CC2)nn1` (stereo in doubt) [Example 134, 2-[3-(1-cyclopropyl-triazol-4-yl)-4-methoxy-pyrrolidin-1-yl]-4-(2,4-difluorophenyl)-6,7-dimethyl-pteridine formic acid], the EC50 is 100 to 500 nM.

As for `Cc1nc2c(C34CC(C(F)(F)F)(C3)C4)nc(N3C[C@@H](C)O[C@@H](c4cnn(C5CC5)c4)C3)nc2c(=O)n1C` [Example 127, 6-[(2S,6R)-2-(1-cyclopropylpyrazol-4-yl)-6-methyl-morpholin-4-yl]-2,3-dimethyl-8-[3-(trifluoromethyl)-1-bicyclo[1.1.1]pentanyl]pyrimido[5,4-d]pyrimidin-4-one], the EC50 is below 100 nM. In the case of `Cc1nc2nc(N3C[C@@H](C)O[C@@H](c4cnn(C5CC5)c4)C3)nc(-c3ccc(F)cc3F)c2cc1C1=NCCO1` [Example 7, (2S,6R)-2-(1-cyclopropylpyrazol-4-yl)-4-[4-(2,4-difluorophenyl)-6-(4,5-dihydrooxazol-2-yl)-7-methyl-pyrido[2,3-d]pyrimidin-2-yl]-6-methyl-morpholine], the EC50 was below 100 nM. Consider `Cc1nnc(-c2cc3c(-c4ccc(F)cc4F)nc(N4C[C@@H](C)O[C@@H](c5cnn(C6CC6)c5)C4)nc3nc2C)s1` [Example 10, (2S,6R)-2-(1-cyclopropylpyrazol-4-yl)-4-[4-(2,4-difluorophenyl)-7-methyl-6-(5-methyl-1,3,4-thiadiazol-2-yl)pyrido[2,3-d]pyrimidin-2-yl]-6-methyl-morpholine], for which the EC50 is below 100 nM.

Consider `Cc1nc2nc(C3CCOC(c4ccc5nnc(C)n5c4)C3)nc(-c3ccc(F)cc3F)c2nc1C` (centres unmarked) [Example 99, 4-(2,4-difluorophenyl)-6,7-dimethyl-2-[2-(3-methyl[1,2,4]-triazolo[4,3-a]pyridin-6-yl)tetrahydropyran-4-yl]pteridine], for which the EC50 is below 100 nM. With `Cc1nc2nc([C@H]3CCO[C@@H](c4cnn(C5CC5)c4)C3)nc(C34C5C6C3C3C4C5C63C(F)(F)F)c2nc1C` (stereo partly drawn) [Example 143, 2-((2R,4S)-2-(1-cyclopropyl-1H-pyrazol-4-yl)tetrahydro-2H-pyran-4-yl)-6,7-dimethyl-4-(4-(trifluoromethyl)-cuban-1-yl)pteridine], the EC50 was below 100 nM.
